The record followed here is patent US8986696B2, “Trans-capsular administration of p38 map kinase inhibitors into orthopedic joints” (DePuy Mitek, Inc., priority 2007, dated 2015).

Like-named read-outs stand apart in the source and are kept apart here.

Data set [1] relates to IL-1β-stimulated GAG release, bovine chondrocyte pellets / ARC tissues. In words: chondrocyte pellet culture model: GAG degradation. It is filed as cell-based. Conditions: for inhibition of GAG degradation: ARC tissues stimulated with IL-1β; for GAG Release: Pellet Assay. In a few lines:
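Bovine chondrocyte pellets (calf articular cartilage, 2–3 weeks culture) or ARC tissue punches pretreated with compounds for 1 h at 37° C, then 3–5 days with or without 10 ng/ml IL-1β; DMSO ≤1%. Medium GAG measured by dimethylmethylene blue absorbance at 525 nm against chondroitin sulfate; reported as μg/ml or % total GAG released.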

A short description of another data set: solubility. It counts as physicochemical.
Data set [2] concerns IL-1β-stimulated NO production, bovine chondrocyte pellets / ARC tissues. In words: chondrocyte pellet culture model: total nitrite/nitrate (NO). It counts as cell-based. Conditions: for NO production: 10 ng/ml IL-1β. An excerpt:
(§1) Calf articular cartilage was obtained from the knee joints of eight to twelve month old animals and was processed within twenty-four hours after sacrifice. After removal of muscle and ligament, the cartilage was kept moist using phosphate buffer solution (PBS) to prevent tissue dehydration, and was aseptically peeled off from subchondral bone with a scalpel, and the cartilage pieces were further minced into smaller pieces (˜0.3-0.5×˜0.2-0.5 cm cubes). […] Chondrocytes were then enzymatically isolated from the tissue by incubation for overnight at 37° C. with gentle agitation in 0.2% collagenase in Dulbecco's modified eagle media (DMEM). After removal of tissue debris by filtration through cell strainer and the residual collagenase by 3× wash in PBS, cells were finally resuspended at a density of 2.5×10^6 cells/ml in chondrocyte medium. A 1 ml aliquot of the cell suspension was dispensed into either a 15 ml Falcon centrifuge tube or a 96 deep-well plate and centrifuged at 2000×g for five minutes. The chondrocyte pellets were incubated at 37° C. in a humidified atmosphere of 5% CO2 for two to three weeks with a medium change every other day.
(§2) As an alternative to using calf articular cartilage, a commercial Alginate Recovered Chondrocytes (ARC) system was also used (Articular Engineering, LLC (Northbrook, Ill.)). Use of the commercial system cut down on labor and time in producing chondrocyte pellet. This system produced cartilaginous tissue in vitro using bovine chondrocytes. The first step consisted of culturing chondrocytes in alginate under conditions optimal for the formation of a cell-associated matrix (CM). The second step allowed these cells with their CM, after recovery, to rapidly form and become integrated into a solid mass of cartilage on a porous insert within two weeks. This tissue is rich in cells surrounded by a cell-associated matrix that is degraded rapidly when the cells are exposed to IL-1. ARC tissues in 3 mm punches at delivery were first dispensed into a 96 deep-well plate, one punch per well, for compound treatment. The subsequent procedures were the same as those used for the chondrocyte pellets.
(§3) Chondrocyte pellets were washed once with 1 ml of Chondrocyte Stimulation Medium and equilibrated in the same medium at room temperature for fifteen to thirty minutes. Compounds were dissolved in H2O, Ethanol or dimethyl sulfoxide (DMSO) (10^−2 M) according to suppliers' instructions and further diluted with Chondrocyte Stimulation Medium to the required concentrations. DMSO concentrations in the culture media should not exceed 1%; this concentration of DMSO has no effect on cartilage proteoglycan metabolism in response to cytokines.
(§4) The pellets were first treated with compounds at desired concentrations at 37° C. for one hour and then incubated for three to five days in the absence or presence of 10 ng/ml of IL-1β. At the end of the incubation, media and pellets were harvested and frozen for further analysis. Pellets were also fixed as needed in 4% (w/v) paraformaldehyde in PBS for histology analysis.
Nitrate/Nitrite levels were measured using the Griess reaction (Green L. C. et al., “Analysis of Nitrate, Nitrite, and [15N]nitrate in Biological Fluids,” Anal. Biochem. 126: 131-138 (1982)) with aNitrate/Nitrite Colorimetric Assay Kit (Cayman Chemicals), the contents of which are incorporated herein by reference. The assay involved a simple two-step process. The first step involved conversion of nitrate in 50 μl of culture medium to nitrite utilizing nitrate reductase in a reaction volume of 100 μl at room temperature for two hours. The second step involved the addition of 50 μl of both Griess Reagent 1 and 2, which converted nitrite into a deep purple azo compound in ten minutes. Photometric measurement of the absorbance at 540 or 550 nm due to this azo chromophore accurately determined nitrite concentration. […]

The test system of data set [3] is IL-1β-stimulated PGE2 synthesis, bovine chondrocyte pellets / ARC tissues. In words: chondrocyte pellet culture model: PGE2. It is filed as cell-based. Conditions: for PGE2 synthesis: 10 ng/ml IL-1β.
Text: as §1, §2, §3, §4
Prostaglandin E2 (PGE2) was measured with a STAT-Prostaglandin E2 EIA ELISA kit (Cayman Biochemicals). This assay is based on the competition between PGE2 from 50 μl samples and a PGE2-alkaline phosphatase conjugate for a limited amount of PGE2 monoclonal antibody in a reaction volume of 150 μl at room temperature for one hour. The antibody-PGE2 complex bound to a goat polyclonal anti-mouse IgG that had been previously attached to the well. After washing to remove any unbound reagents, para-nitrophenyl phosphate (pNPP) was added to the well. The product of this enzymatic reaction absorbs strongly at 412 nm. Because of the large range in response to IL-1β and other cytokines, PGE2 values were converted to log scale prior to doing t-tests.

The mark [4] stands for this setting: diacerein at 5.4 μM, rhein at 0.35 μM.

Take `OCCC#Cc1nc(-c2ccc(F)cc2)c(-c2ccncc2)n1CCCc1ccccc1` [JNJ 3026582 (RWJ 67657), 4-[4-(4-fluorophenyl)-1-(3-phenylpropyl)-5-(4-pyridinyl)-1H-imidazol-2-yl]-3-butyn-1-ol]: the “inhibition of GAG degradation” value in data set [1] is recorded as “significant effect”. The “water solubility” value in “solubility” is given as “poor water solubility”. For the same molecule, in the data set “solubility” (soluble at pH<2), the “pH at which soluble” value is on record as < 2.

As to `CC(C(=O)O)c1ccc(C(=O)c2cccs2)cc1` (stereo not drawn) [Suprofen, reference compound], the “GAG Release” value in data set [1] is given as “No effect”.

As to `CC(=O)N1CCN(c2c(-c3ccncc3)c(-c3ccc(F)cc3)c(C#N)n2C)CC1` [JNJ 17089540 (RWJ 669307)], the IC50 – broadly, the midpoint of a concentration-inhibition curve – in data set [2] (Pellet Assay, read-out: NO Inhibition IC50) worked out at 4.9 µM; in data set [2] (bovine ARC, 7.5 ng/ml IL-1β, five days, read-out: NO IC50), 4.92 µM; in data set [3] (Pellet Assay, read-out: PGE2 Inhibition IC50), 29.6 µM; in data set [3] (bovine ARC, 7.5 ng/ml IL-1β, five days, read-out: PGE2 IC50), 29.6 µM. In data set [1], the “inhibition of GAG degradation” value is given as “little effect”. Further, in data set [1], the “GAG Release” value is reported as “No effect”. Further, in the data set “solubility” (HCl salt), the water solubility was > 100 mg/mL.

As to `CC(=O)Oc1cccc2c1C(=O)c1c(OC(C)=O)cc(C(=O)O)cc1C2=O` [Diacerein, reference compound], in data set [2] (setting [4]), the “NO production” value is reported as “significantly inhibited”. Further, the “PGE2 synthesis” value in data set [3] (setting [4]) was “no effect”. Further, the “lowest concentration inhibiting proteoglycan degradation” value in data set [1] (10 ng/ml IL-1β, five days) is ≤ 0.054 µM.

In the case of `C[C@H](Nc1nccc(-c2c(-c3ccc(F)cc3)nc3nc(N)ccn23)n1)c1ccccc1` [JNJ 7583979 (RWJ 351958)], the “NO production” value in data set [2] (ARC) is recorded as “significantly inhibited”. Further, the “PGE2 synthesis” value in data set [3] (ARC) is listed as “significantly inhibited”. For the same molecule, the “inhibition of GAG degradation” value in data set [1] is listed as “significant effect”. Also, the “water solubility” value in the data set “solubility” is on record as “poor water solubility”.
